Six compounds from ChEMBL document CHEMBL1141438, “Securinega alkaloids from the wood of Securinega suffruticosa var. amamiensis” (J Nat Prod, 2007) can be followed below.

The structures appear in SMILES notation. Values after ≈ are worked out from the molar mass of the structure shown.

A word on the IC50: it is the concentration that inhibits the measured activity by half. Lower therefore signals higher potency.

The test system of assay [1] is KB. The assay is described as follows: Cytotoxicity against human KB cells. In kind it is functional, cell-based.
In assay [2] the test system is L1210. Put plainly: Cytotoxicity against mouse L1210 cells. In kind it is functional, cell-based.

In the case of `CO[C@H]1CCN2[C@@H](C1)[C@]13C[C@H]2[C@@H](OC)CC1=CC(=O)O3` [SECURINEGA AMAMINE B], the 50% inhibitory concentration (IC50) in assay [1] and in assay [2] was over 5 µg/mL each time.
In the case of `CO[C@H]1CC2=CC(=O)O[C@@]23C[C@@H]1N1CCCC[C@@H]13` [SECURINEGA AMAMINE C], the IC50 in assay [1] and in assay [2] was over 5 µg/mL in each case.
As for `O=C1C=C2C=C[C@@H]3C[C@@]2(O1)[C@H]1C[C@@H](O)CCN31`, the results for the IC50 in assay [1] and in assay [2] were 3 µg/mL (≈ 12.9 µM) and 3.7 µg/mL (≈ 15.9 µM), respectively.
The corresponding values for `CO[C@H]1CCN2O[C@@H]3C=CC4=CC(=O)O[C@]4(C3)[C@@H]2C1` [SECURINEGA AMAMINE D] are over 5 µg/mL and over 5 µg/mL.
The corresponding values for `O=C1C=C2C=C[C@@H]3C[C@@]2(O1)[C@H]1CCCCN31` [SECURININE] are 2.2 µg/mL (≈ 10.1 µM) and 1.9 µg/mL (≈ 8.74 µM).
The corresponding values for `O=C1C=C2C=C[C@@H]3C[C@@]2(O1)[C@@H]1CCCCN1O3` [PHYLLANTIDINE] are over 5 µg/mL and over 5 µg/mL.
